# In patent publication US20260034092A1, “BIOCIDAL COMPOSITION” (priority 2022, published 2026):
# Legend:
# [1] = test system: bacterial Biofilm (Listeria monocytogenes ATCC 35152, Clostridium sporogenes ATCC 19404, Candida albicans ATCC 26555 and Escherichia col); experiment: MIC test against bacterial Biofilm; format: cell-based; conditions: incubated 48 h at 37° C.
# [2] = test system: Pseudomonas aeruginosa (ATCC 15442); experiment: Minimum Inhibitory Concentration (MIC) test; conditions: incubated 48 h at 37° C.
Structure (SMILES),Minimum inhibitory concentration (MIC) [1] [%],Minimum inhibitory concentration (MIC) [2] [%]
"CC1CCC(C(C)C)C(O)C1 (stereo not shown) [Menthol, 5-Methyl-2-(propan-2-yl)cyclohexan-1-ol]",5.98,5.32
"Cc1ccc(C(C)C)cc1O [Carvacrol, 5-Isopropil-2-metilfenol]",1.01,0.89
"Cc1ccc(C(C)C)c(O)c1 [Thymol, 5-Methyl-2-(propan-2-yl) phenol]",2.29,2.11
"CC12CCC(CC1)C(C)(C)O2 [Eucalyptol, 1,3,3-Trimethyl-2-oxabicyclo[2.2.2]octane]",1.21,1.09
"CC1=CCC(O)(C(C)C)CC1 (stereo not shown) [Terpinen-4-ol, 4-Methyl-1-(propan-2-yl)cyclohex-3-en-1-ol]",1.96,1.64
